Values quoted from earlier work in US8657798B2, “Anti-inflammatory analgesic adhesive patch for external use” (Teikoku Seiyaku Co., Ltd., priority 2010, dated 2014).

Conditions: compared with diclofenac sodium

**Q.** For Diclofenac hydroxyethylpyrrolidine, which water solubility is on record?
**A.** Its water solubility is “better water solubility than diclofenac sodium”.
